The values below come from PubChem BioAssay (NCI).

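Dose response: 5 concentrations. Exposure: 48 h. Format: 96-well plates. Endpoint: linear interpolation; highest concentration if not reached. GI50 is the concentration that inhibits growth by half. TGI marks complete inhibition of growth.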

Test systems include CCRF-CEM leukemia; UACC-257 melanoma; SW-620 colon; SF-268 CNS; HCC-2998 colon; KM12 colon; UACC-62 melanoma; K-562 leukemia; A498 renal; NCI-H226 lung.
What all share (assay): NCI-60 cell line screen, 48 h

For the molecule `O=S(=O)(C1=CC(S(=O)(=O)c2ccccc2)COC1)c1ccccc1` (configuration not stated), the TGI with CCRF-CEM leukemia, in the experiment with UACC-257 melanoma, in the experiment on SW-620 colon, with SF-268 CNS, with HCC-2998 colon and in the experiment on KM12 colon was over 100 µM each time. The TGI in the experiment with UACC-62 melanoma and with K-562 leukemia was over 100 µM throughout.

With `CCCCCCCCSC(=O)NCCCC`, the TGI in the experiment with CCRF-CEM leukemia, in the experiment with SW-620 colon, in the experiment on A498 renal, in the experiment on SF-268 CNS, in the experiment with KM12 colon and with UACC-62 melanoma was over 100 µM throughout. The molecule also came in with a TGI in the experiment with K-562 leukemia of over 100 µM.

Turning to `CCN(C(=O)N1CCN(c2cc3c(cc2F)c(=O)c(C(=O)O)cn3C2CC2)CC1)c1nc(-c2ccccc2)cs1`, the GI50 was 2.83 µM in the experiment with UACC-257 melanoma; 3.93 µM with SW-620 colon; 1.84 µM in the experiment with NCI-H226 lung; 3.29 µM with SF-268 CNS; 3.28 µM in the experiment on HCC-2998 colon; 2.94 µM in the experiment with KM12 colon. In addition, the GI50 is 2.05 µM with UACC-62 melanoma and 3.2 µM in the experiment on K-562 leukemia. Also, the TGI in the experiment with UACC-257 melanoma was 7.61 µM; in the experiment on SW-620 colon, over 100 µM; in the experiment on NCI-H226 lung it was 3.74 µM; in the experiment on SF-268 CNS, over 100 µM; in the experiment on HCC-2998 colon, 79.3 µM; in the experiment with KM12 colon it was over 100 µM. Moreover, the values for the TGI in the experiment with UACC-62 melanoma and in the experiment with K-562 leukemia were 5.62 µM and over 100 µM, respectively.

In the case of `O=C(Nc1ccc(OS(=O)(=O)c2ccc(F)cc2)cc1)C12CC3CC(CC(C3)C1)C2`, the GI50 was 11 µM in the experiment on UACC-257 melanoma; 0.54 µM with SW-620 colon; 0.936 µM in the experiment with A498 renal; 15 µM in the experiment with NCI-H226 lung; 19.8 µM in the experiment on SF-268 CNS; over 28.2 µM in the experiment on HCC-2998 colon. In addition, the GI50 in the experiment on KM12 colon was 1.15 µM; in the experiment on UACC-62 melanoma, 6.44 µM; in the experiment with K-562 leukemia, 0.319 µM. Also, the TGI in the experiment with UACC-257 melanoma was over 100 µM; in the experiment with SW-620 colon it was over 100 µM; in the experiment with A498 renal, 22.4 µM; in the experiment on NCI-H226 lung, over 79.3 µM; in the experiment with SF-268 CNS, over 100 µM; in the experiment on HCC-2998 colon it was over 100 µM. In addition, the TGI in the experiment with KM12 colon is over 100 µM; with UACC-62 melanoma, over 65 µM; in the experiment with K-562 leukemia it was over 100 µM.

On to `CC12Nc3ccccc3C1=C(c1ccccc1)CC1C(=O)OC(=O)C12` (configuration not stated), for which the TGI in the experiment with CCRF-CEM leukemia, with UACC-257 melanoma, in the experiment with SW-620 colon, in the experiment with SF-268 CNS, in the experiment with HCC-2998 colon and in the experiment with KM12 colon was over 100 µM in each case. For the same molecule, the TGI in the experiment with UACC-62 melanoma and in the experiment with K-562 leukemia was over 100 µM throughout.

As for `NC(N)=NN=c1c(=O)c2ccccc2c1=O`, the GI50 was 2.14 µM with CCRF-CEM leukemia; 15.1 µM with UACC-257 melanoma; 1.96 µM in the experiment on SW-620 colon; 14.8 µM in the experiment with NCI-H226 lung; 2.06 µM with SF-268 CNS; 14.2 µM in the experiment with HCC-2998 colon. The results for the GI50 with KM12 colon and with UACC-62 melanoma were 3.34 µM and 12.7 µM, respectively. Besides, the TGI with CCRF-CEM leukemia came to 5.27 µM; with UACC-257 melanoma it was 28.9 µM; in the experiment on SW-620 colon it was 4.76 µM; in the experiment with NCI-H226 lung it was 28.1 µM; with SF-268 CNS, 3.81 µM; in the experiment with HCC-2998 colon, 28 µM. Further, the TGI was determined as 10.7 µM with KM12 colon and 25.8 µM with UACC-62 melanoma.

`O=c1cc(-c2ccc(Cl)cc2)[nH]c2ccccc12`: the GI50 in the experiment on UACC-257 melanoma is over 100 µM; in the experiment with SW-620 colon, 27.7 µM; with A498 renal, 51.6 µM; in the experiment with NCI-H226 lung, over 100 µM; in the experiment on SF-268 CNS it was 83.3 µM; in the experiment on HCC-2998 colon it was over 100 µM. For the same molecule, the GI50 in the experiment on KM12 colon is 27.2 µM; in the experiment with UACC-62 melanoma it was 37.4 µM; in the experiment with K-562 leukemia, 7.03 µM. Further, the TGI in the experiment with UACC-257 melanoma, in the experiment with SW-620 colon, with A498 renal, in the experiment with NCI-H226 lung, in the experiment with SF-268 CNS and with HCC-2998 colon was over 100 µM throughout. For the same molecule, the TGI in the experiment on KM12 colon, with UACC-62 melanoma and in the experiment with K-562 leukemia was over 100 µM throughout.

For `COC(=O)c1cc(-c2ccc3ccccc3c2)[nH]c(=O)c1C#N`, the TGI in the experiment on UACC-257 melanoma, in the experiment on SW-620 colon, with A498 renal, with NCI-H226 lung, in the experiment with SF-268 CNS and in the experiment on HCC-2998 colon was over 100 µM in each case. Also, the TGI in the experiment on KM12 colon and with UACC-62 melanoma was over 100 µM each time.

Consider `Clc1ccc(-c2cc(-c3ccccc3)nc(N3CCN(CCCNc4ccnc5cc(Cl)ccc45)CC3)n2)cc1`, for which the GI50 in the experiment with UACC-257 melanoma was 1.93 µM; in the experiment on SW-620 colon, 1.42 µM; in the experiment with A498 renal, 1.48 µM; with SF-268 CNS, 1.73 µM; in the experiment with HCC-2998 colon, 1.56 µM; with KM12 colon, 1.68 µM. In addition, the GI50 is 1.79 µM in the experiment with UACC-62 melanoma and 0.461 µM in the experiment with K-562 leukemia. In addition, the TGI worked out at 3.89 µM in the experiment on UACC-257 melanoma; 3.06 µM in the experiment on SW-620 colon; 2.81 µM in the experiment with A498 renal; 3.64 µM in the experiment with SF-268 CNS; 3.02 µM in the experiment on HCC-2998 colon; 3.2 µM with KM12 colon. In addition, the TGI in the experiment on UACC-62 melanoma was 3.25 µM; with K-562 leukemia it was 2.31 µM.

For the molecule `CC(=O)NNc1nc(C)c(C(=O)NNC(=O)C(=O)Nc2ccc(Cl)c([N+](=O)[O-])c2)s1`, the TGI was 56.8 µM in the experiment on CCRF-CEM leukemia; over 100 µM in the experiment on UACC-257 melanoma; over 100 µM in the experiment on SW-620 colon; over 100 µM in the experiment on NCI-H226 lung; over 100 µM in the experiment with SF-268 CNS; over 100 µM in the experiment on HCC-2998 colon. In addition, the TGI in the experiment with KM12 colon was over 100 µM; with UACC-62 melanoma, over 100 µM; in the experiment with K-562 leukemia, 74.4 µM.

For `Cc1ccc2nc(NC(=O)C(=O)C(C(=O)c3ccc4ccccc4c3)C3OC(=O)c4ccccc43)sc2c1` (configuration not stated), the TGI in the experiment on UACC-257 melanoma worked out at 31.8 µM; in the experiment on SW-620 colon, 22.9 µM; in the experiment on A498 renal it was 21.3 µM; with NCI-H226 lung it was 5.43 µM; with SF-268 CNS, 31.3 µM; in the experiment with HCC-2998 colon it was 23.7 µM. The values for the TGI in the experiment with KM12 colon and in the experiment on UACC-62 melanoma were 37.4 µM and 25 µM, respectively.
